{
  "source": "patent US6338963B1",
  "about": "“Use of carbon monoxide dependent guanylyl cyclase modifiers to stimulate neuritogenesis” (NeoTherapeutics, Inc., priority 1994, dated 2002)",
  "key": {"adenosine receptor": {"test_system": "adenosine receptor", "assay": "Receptor ligand binding in vitro, adenosine", "experimental": "AIT-082 was evaluated for its ability to inhibit ligand binding to 38 isolated receptors."}, "C57BL/6 mice": {"test_system": "C57BL/6 mice", "assay": "Ethanol-induced working memory deficit (win-shift)", "type": "in vivo", "details": "Ethanol 0.5 gm/kg i.p. + AIT-082 30 mg/kg i.p. 1 hour prior", "experimental": "Six month old male C57BL/6 mice were evaluated in the win-shift model in combination with treatment with ethanol, a non-specific memory suppressant, and AIT-082. Subjects were treated with saline (control) or AIT-082 (30 mg/kg. i.p.) 1 hour prior to testing. Ethanol was administered at a dose of 0.5 gm/kg i.p. ten minutes prior to testing."}, "rat caudate nuclei": {"test_system": "rat caudate nuclei", "assay": "GAD activity in rat caudate nuclei damaged by NMDA", "type": "in vivo", "experimental": "The effect of AIT-082 on in vivo neuroprotection was also assessed by assaying for glutamic acid decarboxylase (GAD) activity.\nGAD activity in rat caudate nuclei was damaged in vivo by NMDA. Increasing amounts of NMDA (25-300 nmoles) were unilaterally infused into caudate nuclei of rats. Eight to 10 days after the injections, glutarnic acid decarboxylase (GAD) activity was assayed, as an index of the loss of GABA-ergic neurons. NMDA produced a dose-dependent lesion, which at its maximal extension caused a reduction of GAD activity by 50% in comparison with that of contralateral sham-operated nuclei (control). […] The necrotic areas are in white, whereas the shadow is the surrounding edema GAD activity was evaluated by measuring the ex novo formation of [^3H]GABA from dissected striata exposed to 1 μCi of [^3H]glutamate for 1 hour at 37° C. GABA was assayed by HPLC with fluorescence detection and the [3H]label associated with GABA was measured."}, "[1]": {"test_system": "basal forebrain cholinergic neurons", "assay": "Fimbria-fornix transection, ChAT-positive medial septum neurons", "type": "in vivo, F344 rats", "details": "AIT-082 30 mg/kg IP every three days, 14 days post-lesion", "experimental": "This model is the gold standard for examining the effects of neurotrophic factors, neurotrophic factor-releasing agents, and neurotrophic factor analogues in the central nervous system (CNS). Fimbria-fornix transections (FFT) are performed to induce the degeneration of basal forebrain cholinergic (BFC) neurons. […] The infusion of nerve growth factor completely prevents the degeneration of these neurons. In this experiment, animals received AIT-082 to determine whether it would prevent lesion-induced degeneration of BFC neurons.\nAdult female F344 rats received an intraperitoneal (IP) injection of AIT-082 (30 mg/kg) or saline one hour prior to receiving a unilateral fimbria-fornix transection (FFT) (n=6 per group). All animals survived the surgery and continued to receive IP injections of AIT-082 or vehicle every three days following the lesion. All animals were perfused with fixative at 14 days post-lesion and brains were sectioned and processed for choline acetyltransferase (ChAT) and p75 immunoreactivity. For analysis, three sections, 240 μm apart, were taken at the level of the medial septum and ChAT positive cells were counted both ipsilateral and contralateral to the lesion.\nFor the results of FIG. 44, ChAT-positive cells were counted in three sections, 240 μm apart. Data was expressed as a ratio of cell counts ipsilateral to the lesion divided by counts contralateral to the lesion. […]"}, "GDNF": {"test_system": "GDNF", "assay": "Two-site ELISA of growth factor protein in rat brain and spinal cord: GDNF", "type": "in vivo, F344 rats", "experimental": "(§1) Adult female F344 rats were given either AIT-082 (doses: 30 mg/kg/day or a higher dose of 30 mg/ml (˜3,000 mg/kg/day); n=6 rats per group) in their drinking water, or water alone, as a vehicle for control. The duration of the study was seven days, at which time the rats were anesthesized and perfused with ice-cold saline. The brains of the rats were rapidly removed. The brains were placed on a chilled glass plate and dissected into the following regions: basal forebrain, frontal cortex, parietal cortex, cerebellum, spinal cord, and hippocampal formation. Tissues were stored at −70° C. until assayed in a specific two-site ELISA for either NGF, BDNF, NT-3, or GNDF.\n(§2) The results are shown in FIGS. 45 (BDNF), 46 (NT-3), 47 (GDNF) and 48 (NGF). For the results shown in FIGS. 45-48, animals were given only water (VEH, n=6) or water with AIT-082 at either 30 mg/kg/day (n=6) or 30 mg/ml (n=6) for seven days. The levels of each growth factor were determined in the frontal cortex (F. Cor.), parietal cortex (P.Cor.), hippocampal formation (Hipp.), basal forebrain (B.F.), cerebellum (Cer.), or spinal cord (Cord) using a specific two-site ELISA for each growth factor.\n(§3) Adult female rats were given AIT-082 (30 mg/kg/day) in their drinking water or drinking water alone (n=6 for each group) for seven days prior to receiving a bilateral fimbria fornix transection (FFT).\n(§4) The results are shown in FIGS. 49 (BDNF), 50 (NT-3), 51 (GDNF) and 52 (NGF). […] Levels of the growth factor were determined in frontal cortex (F.Cor.), parietal cortex (P.Cor.), hippocampal formation (Hipp.), basal forebrain (B.F.), cerebellum (Cer.), or spinal cord (Cord) using a specific two-site ELISA for each growth factor. […]\n(§5) Results are shown in FIGS. 53 (BDNF), 54 (NT3), 55 (GDNF), and 56 (NGF). […] Levels of each growth factor were determined in frontal cortex (F.Cor.), parietal cortex (P. Cor.), hippocampal formation (Hipp.), basal forebrain (B.F.), cerebellum (Cer.) or spinal cord (Cord) using a specific two-site ELISA."}, "NGF": {"test_system": "NGF", "assay": "Two-site ELISA of growth factor protein in rat brain and spinal cord: NGF", "type": "in vivo, F344 rats", "experimental": "as §1, §2, §3, §4, §5"}, "rats": {"test_system": "rats", "details": "oral or intraperitoneal route, preliminary"}, "[2]": {"details": "79 different test systems"}},
  "data": [
    {"smiles": "O=C(CCn1cnc2c(=O)[nH]cnc21)Nc1ccc(C(=O)O)cc1", "note": "[AIT-082, N-4-carboxyphenyl-3-(6-oxohydropurin-9-yl)propanamide]", "values": [
      {"measurement": "binding to the adenosine receptor", "setting": "adenosine receptor", "result": "does not bind"},
      {"measurement": "Correct trials (mean number of correct responses per 10 trials ± S.E.)", "setting": "C57BL/6 mice", "result": "7.89 ± 0.54"},
      {"measurement": "GAD activity in damaged striata", "setting": "rat caudate nuclei; daily intraperitoneal injection for seven days, 200 mnoles NMDA", "result": "nearly completely preserved GAD activity"},
      {"measurement": "loss of GAD activity", "setting": "rat caudate nuclei; local, 300 mnoles AIT-082 coinfused with 200 nmoles NMDA", "result": "almost completely prevented the loss of GAD activity"},
      {"measurement": "lesion-induced loss of ChAT-labeled cells in the BFC region", "setting": "[1]", "result": "did not reduce lesion-induced loss of ChAT-labeled cells"},
      {"measurement": "GDNF protein levels", "setting": "GDNF; FFT-lesioned rats, 30 mg/kg/day, basal forebrain", "result": "increased GDNF levels"},
      {"measurement": "GDNF protein levels", "setting": "GDNF; aged rats, 30 mg/kg/day 30 days, parietal and frontal cortex", "result": "restored GDNF protein levels to those of young animals"},
      {"measurement": "GDNF protein levels", "setting": "GDNF; intact adult rats, 3000 mg/kg/day, basal forebrain and spinal cord", "result": "increased GDNF levels"},
      {"measurement": "NGF protein levels", "setting": "NGF; FFT-lesioned rats, 30 mg/kg/day", "result": "No significant increases"},
      {"measurement": "NGF protein levels", "setting": "NGF; aged rats, 30 mg/kg/day 30 days, any brain region", "result": "no effect"},
      {"measurement": "NGF protein levels", "setting": "NGF; intact adult rats", "result": "No changes"},
      {"measurement": "LD50", "setting": "rats", "result": "> 3000", "unit": "mg/kg"},
      {"measurement": "toxicity in standard profile", "setting": "[2]", "result": "absence of any toxicity"}
    ]}
  ]
}
